The source of these data is ChEMBL document CHEMBL4622899, “Synthesis and anticancer activity of open-resorcinarene conjugates” (Bioorg Med Chem Lett, 2020).

Assay [1] concerns PC-3. Briefly: Anticancer activity against human PC3 cells assessed as cell growth inhibition measured after 48 hrs by MTT assay. It counts as functional, cell-based. For orientation: Formazan colour is commonly taken as a measure of viable cells.
The test system of assay [2] is U-251. Nature of the assay: Anticancer activity against human U251 cells assessed as cell growth inhibition measured after 48 hrs by MTT assay. It is filed as functional, cell-based.
The subject of assay [3] is HCT-15. Nature of the assay: Anticancer activity against human HCT15 cells assessed as cell growth inhibition measured after 48 hrs by MTT assay. It is filed as functional, cell-based.
The subject of assay [4] is MCF7. Nature of the assay: Anticancer activity against human MCF7 cells assessed as cell growth inhibition measured after 48 hrs by MTT assay. It counts as functional, cell-based.
For assay [5], the system named is K562. Nature of the assay: Anticancer activity against human K562 cells assessed as cell growth inhibition measured after 48 hrs by MTT assay. It is filed as functional, cell-based.
For assay [6], the system named is COS-7. Nature of the assay: Cytotoxicity against African green monkey COS7 cells assessed as cell growth inhibition measured after 48 hrs by MTT assay. It is filed as cell-based, Chlorocebus aethiops.
Assay [7] deals with SK-LU-1. Briefly: Anticancer activity against human SKLU1 cells assessed as cell growth inhibition measured after 48 hrs by MTT assay. It is filed as functional, cell-based.
Where [8] appears, read: Homo sapiens, PC-3, 48 h, read-out: IC50.
Where [9] appears, read: Homo sapiens, U-251, 48 h, read-out: IC50.
[10] abbreviates: Homo sapiens, HCT-15, 48 h, read-out: IC50.
The mark [11] stands for this setting: Homo sapiens, MCF7, 48 h, read-out: IC50.
[12] abbreviates: Homo sapiens, K562, 48 h, read-out: IC50.
The mark [13] stands for this setting: Chlorocebus aethiops, COS-7, 48 h, read-out: IC50.
The mark [14] stands for this setting: Homo sapiens, SK-LU-1, 48 h, read-out: IC50.

The IC50 is the point on the concentration scale where inhibition reaches its midpoint. With `CC(C)Cc1ccc(C(C)C(=O)O)cc1` (configuration not stated) [IBUPROFEN], the IC50 in assay [1] (setting [8]) was greater than 1000 µM; in assay [2] (setting [9]), greater than 1000 µM; in assay [3] (setting [10]) it was greater than 1000 µM; in assay [4] (setting [11]), 92.1 µM; in assay [5] (setting [12]), greater than 1000 µM; in assay [6] (setting [13]), greater than 1000 µM. In addition, in assay [7] (setting [14]), the half-maximal inhibitory concentration (IC50) worked out at 90.6 µM.
Consider `COc1ccc2cc([C@H](C)C(=O)O)ccc2c1` [NAPROXEN], for which the 50% inhibitory concentration (IC50) was greater than 1000 µM in assay [1] (setting [8]); greater than 1000 µM in assay [2] (setting [9]); greater than 1000 µM in assay [3] (setting [10]); greater than 1000 µM in assay [4] (setting [11]); 181 µM in assay [5] (setting [12]); greater than 1000 µM in assay [6] (setting [13]). For the same molecule, the IC50 in assay [7] (setting [14]) is greater than 1000 µM.
As to `O=C(COc1cc(OCC(=O)NCCOC(=O)CCCc2ccc(N(CCCl)CCCl)cc2)c(C(c2ccc(C(c3cc(Cl)c(OCC(=O)NCCOC(=O)CCCc4ccc(N(CCCl)CCCl)cc4)cc3OCC(=O)NCCOC(=O)CCCc3ccc(N(CCCl)CCCl)cc3)c3cc(Cl)c(OCC(=O)NCCOC(=O)CCCc4ccc(N(CCCl)CCCl)cc4)cc3OCC(=O)NCCOC(=O)CCCc3ccc(N(CCCl)CCCl)cc3)cc2)c2cc(Cl)c(OCC(=O)NCCOC(=O)CCCc3ccc(N(CCCl)CCCl)cc3)cc2OCC(=O)NCCOC(=O)CCCc2ccc(N(CCCl)CCCl)cc2)cc1Cl)NCCOC(=O)CCCc1ccc(N(CCCl)CCCl)cc1`, the IC50 in assay [1] (setting [8]) is 34 µM; in assay [2] (setting [9]) it was 24.3 µM; in assay [3] (setting [10]) it was 201 µM; in assay [4] (setting [11]) it was 81 µM; in assay [5] (setting [12]), 51.4 µM; in assay [6] (setting [13]), greater than 1000 µM. In addition, in assay [7] (setting [14]), the IC50 was 80 µM.
On to `COC(=O)COc1cc(OCC(=O)OC)c(C(c2ccc(C(c3cc(Cl)c(OCC(=O)OC)cc3OCC(=O)OC)c3cc(Cl)c(OCC(=O)OC)cc3OCC(=O)OC)cc2)c2cc(Cl)c(OCC(=O)OC)cc2OCC(=O)OC)cc1Cl`, for which the IC50 result in assay [1] (pc-3), in assay [2] (u-251), in assay [3] (hct-15), in assay [4] (mcf7), in assay [5] (k562) and in assay [6] (cos-7) was “Not Active” each time. In assay [7] (sk-lu-1), the IC50 result is “Not Active”.
Consider `COc1ccc2c(c1)c(CC(=O)OCCNC(=O)COc1cc(OCC(=O)NCCOC(=O)Cc3c(C)n(C(=O)c4ccc(Cl)cc4)c4ccc(OC)cc34)c(C(c3ccc(C(c4cc(Cl)c(OCC(=O)NCCOC(=O)Cc5c(C)n(C(=O)c6ccc(Cl)cc6)c6ccc(OC)cc56)cc4OCC(=O)NCCOC(=O)Cc4c(C)n(C(=O)c5ccc(Cl)cc5)c5ccc(OC)cc45)c4cc(Cl)c(OCC(=O)NCCOC(=O)Cc5c(C)n(C(=O)c6ccc(Cl)cc6)c6ccc(OC)cc56)cc4OCC(=O)NCCOC(=O)Cc4c(C)n(C(=O)c5ccc(Cl)cc5)c5ccc(OC)cc45)cc3)c3cc(Cl)c(OCC(=O)NCCOC(=O)Cc4c(C)n(C(=O)c5ccc(Cl)cc5)c5ccc(OC)cc45)cc3OCC(=O)NCCOC(=O)Cc3c(C)n(C(=O)c4ccc(Cl)cc4)c4ccc(OC)cc34)cc1Cl)c(C)n2C(=O)c1ccc(Cl)cc1`, for which the IC50 was greater than 1000 µM in assay [1] (setting [8]); 23.1 µM in assay [2] (setting [9]); greater than 1000 µM in assay [3] (setting [10]); greater than 1000 µM in assay [4] (setting [11]); greater than 1000 µM in assay [5] (setting [12]); greater than 1000 µM in assay [6] (setting [13]). Also, the IC50 in assay [7] (setting [14]) was greater than 1000 µM.
With `O=C(COc1cc(OCC(=O)NCCO)c(C(c2ccc(C(c3cc(Cl)c(OCC(=O)NCCO)cc3OCC(=O)NCCO)c3cc(Cl)c(OCC(=O)NCCO)cc3OCC(=O)NCCO)cc2)c2cc(Cl)c(OCC(=O)NCCO)cc2OCC(=O)NCCO)cc1Cl)NCCO`, the IC50 result in assay [1] (pc-3), in assay [2] (u-251), in assay [3] (hct-15), in assay [4] (mcf7), in assay [5] (k562) and in assay [6] (cos-7) was “Not Active” throughout. The concentration for half-maximal inhibition (IC50) entry in assay [7] (sk-lu-1) is “Not Active”.
Turning to `O=C(O)CCCc1ccc(N(CCCl)CCCl)cc1` [CHLORAMBUCIL], the IC50 in assay [1] (setting [8]) was 16.4 µM; in assay [2] (setting [9]) it was 33.1 µM; in assay [3] (setting [10]), 3.11 µM; in assay [4] (setting [11]), greater than 100 µM; in assay [5] (setting [12]), 103 µM; in assay [6] (setting [13]) it was 43.5 µM. The IC50 in assay [7] (setting [14]) was found to be 300 µM.
With `COc1ccc2cc([C@H](C)C(=O)OCCNC(=O)COc3cc(OCC(=O)NCCOC(=O)[C@@H](C)c4ccc5cc(OC)ccc5c4)c(C(c4ccc(C(c5cc(Cl)c(OCC(=O)NCCOC(=O)[C@@H](C)c6ccc7cc(OC)ccc7c6)cc5OCC(=O)NCCOC(=O)[C@@H](C)c5ccc6cc(OC)ccc6c5)c5cc(Cl)c(OCC(=O)NCCOC(=O)[C@@H](C)c6ccc7cc(OC)ccc7c6)cc5OCC(=O)NCCOC(=O)[C@@H](C)c5ccc6cc(OC)ccc6c5)cc4)c4cc(Cl)c(OCC(=O)NCCOC(=O)[C@@H](C)c5ccc6cc(OC)ccc6c5)cc4OCC(=O)NCCOC(=O)[C@@H](C)c4ccc5cc(OC)ccc5c4)cc3Cl)ccc2c1`, the IC50 was greater than 1000 µM in assay [1] (setting [8]); 50.3 µM in assay [2] (setting [9]); greater than 1000 µM in assay [3] (setting [10]); greater than 1000 µM in assay [4] (setting [11]); greater than 1000 µM in assay [5] (setting [12]); greater than 1000 µM in assay [6] (setting [13]). In assay [7] (setting [14]), the IC50 is greater than 1000 µM.
In the case of `CC(C)Cc1ccc(C(C)C(=O)OCCNC(=O)COc2cc(OCC(=O)NCCOC(=O)C(C)c3ccc(CC(C)C)cc3)c(C(c3ccc(C(c4cc(Cl)c(OCC(=O)NCCOC(=O)C(C)c5ccc(CC(C)C)cc5)cc4OCC(=O)NCCOC(=O)C(C)c4ccc(CC(C)C)cc4)c4cc(Cl)c(OCC(=O)NCCOC(=O)C(C)c5ccc(CC(C)C)cc5)cc4OCC(=O)NCCOC(=O)C(C)c4ccc(CC(C)C)cc4)cc3)c3cc(Cl)c(OCC(=O)NCCOC(=O)C(C)c4ccc(CC(C)C)cc4)cc3OCC(=O)NCCOC(=O)C(C)c3ccc(CC(C)C)cc3)cc2Cl)cc1` (configuration not stated), the IC50 in assay [1] (setting [8]), in assay [2] (setting [9]), in assay [3] (setting [10]), in assay [4] (setting [11]), in assay [5] (setting [12]) and in assay [6] (setting [13]) was greater than 1000 µM throughout. Further, the IC50 in assay [7] (setting [14]) was greater than 1000 µM.
As to `Oc1cc(O)c(C(c2ccc(C(c3cc(Cl)c(O)cc3O)c3cc(Cl)c(O)cc3O)cc2)c2cc(Cl)c(O)cc2O)cc1Cl`, the IC50 entry in assay [1] (pc-3), in assay [2] (u-251), in assay [3] (hct-15), in assay [4] (mcf7), in assay [5] (k562) and in assay [6] (cos-7) was “Not Active” throughout. Further, in assay [7] (sk-lu-1), the IC50 entry is listed as “Not Active”.
As to `COc1ccc2c(c1)c(CC(=O)O)c(C)n2C(=O)c1ccc(Cl)cc1` [INDOMETHACIN], the IC50 was greater than 1000 µM in assay [1] (setting [8]); 20.4 µM in assay [2] (setting [9]); greater than 1000 µM in assay [3] (setting [10]); greater than 1000 µM in assay [4] (setting [11]); 190 µM in assay [5] (setting [12]); greater than 1000 µM in assay [6] (setting [13]). Also, in assay [7] (setting [14]), the IC50 was greater than 1000 µM.
